Where “and” joins values, the source holds several entries; their conditions need not be identical. Equal entries are not always repeated. Toxic doses and inconclusive results are not listed. Rule as the data show it: active = T/C of 150% or more; inactive = T/C below 125%.
Tested on: L1210 leukemia ip in BDF1 mice, survival T/C
Assay: NCI In Vivo Anticancer Drug Screen. Data for tumor model L1210 Leukemia (intraperitoneal) in B6D2F1 (BDF1) mice
Conditions: endpoint: mean survival time, higher = longer survival
Summary of the method: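 Read-out is survival time, reported as the treated-group measurement over the vehicle-control measurement.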

[1] = dose: 100.0 mg/kg/injection, schedule: Q04DX003 (ip), vehicle: Klucel (hydroxypropylcellulose) (HPC)
[2] = dose: 50.0 mg/kg/injection, schedule: Q01DX001 (ip), vehicle: saline
[3] = dose: 100.0 mg/kg/injection, schedule: Q01DX001 (ip), vehicle: saline
[4] = dose: 200.0 mg/kg/injection, schedule: Q01DX001 (ip), vehicle: saline
[5] = dose: 400.0 mg/kg/injection, schedule: Q01DX001 (ip), vehicle: saline
[6] = dose: 100.0 mg/kg/injection, schedule: Q01DX009 (ip), vehicle: Klucel (hydroxypropylcellulose) (HPC)
[7] = dose: 200.0 mg/kg/injection, schedule: Q04DX003 (ip), vehicle: Klucel (hydroxypropylcellulose) (HPC)
[8] = dose: 400.0 mg/kg/injection, schedule: Q04DX003 (ip), vehicle: Klucel (hydroxypropylcellulose) (HPC)
[9] = dose: 50.0 mg/kg/injection, schedule: Q01DX001 (ip), vehicle: carboxymethylcellulose (CMC)
[10] = dose: 100.0 mg/kg/injection, schedule: Q01DX001 (ip), vehicle: carboxymethylcellulose (CMC)
[11] = dose: 200.0 mg/kg/injection, schedule: Q01DX001 (ip), vehicle: carboxymethylcellulose (CMC)
[12] = dose: 400.0 mg/kg/injection, schedule: Q01DX001 (ip), vehicle: carboxymethylcellulose (CMC)

Measured: T/C

CCCCCCCCC(=O)N1CCOCC1
inactive: dose: 4.68 mg/kg/injection, schedule: Q01DX009 (ip), vehicle: saline 97 % of control | dose: 9.37 mg/kg/injection, schedule: Q01DX009 (ip), vehicle: saline 97 % of control | dose: 12.5 mg/kg/injection, schedule: Q04DX003 (ip), vehicle: Klucel (hydroxypropylcellulose) (HPC) 99 % of control | dose: 18.75 mg/kg/injection, schedule: Q01DX009 (ip), vehicle: saline 97 % of control | dose: 25.0 mg/kg/injection, schedule: Q01DX009 (ip), vehicle: Klucel (hydroxypropylcellulose) (HPC) 104 % of control | dose: 25.0 mg/kg/injection, schedule: Q04DX003 (ip), vehicle: Klucel (hydroxypropylcellulose) (HPC) 103 % of control and 104 % of control | dose: 37.5 mg/kg/injection, schedule: Q01DX009 (ip), vehicle: saline 95 % of control | dose: 50.0 mg/kg/injection, schedule: Q01DX009 (ip), vehicle: Klucel (hydroxypropylcellulose) (HPC) 96 % of control | dose: 50.0 mg/kg/injection, schedule: Q04DX003 (ip), vehicle: Klucel (hydroxypropylcellulose) (HPC) 101 % of control | [1] 92 % of control

NC(=O)c1c2n(c3ncnc(N)c13)C1OC(CO)C(O)C1S2 (stereo not drawn)
inactive: dose: 25.0 mg/kg/injection, schedule: Q01DX009 (ip), vehicle: water 91 % of control | dose: 50.0 mg/kg/injection, schedule: Q01DX009 (ip), vehicle: water 91 % of control

O=C(CCCC(=O)N/N=C/C=C/c1ccccc1)N/N=C/C=C\c1ccccc1
inactive: [2] 87 % of control | [3] 110 % of control | [4] 93 % of control | [5] 97 % of control

N=C1SCc2ccccc21
inactive: [6] 104 % of control

Nc1ccc(-c2nc3nc(N)nc(N)c3nc2-c2ccc(N)cc2)cc1
inactive: dose: 30.0 mg/kg/injection, schedule: Q01DX Z (ip), vehicle: carboxymethylcellulose (CMC) 102 % of control | dose: 60.0 mg/kg/injection, schedule: Q01DX Z (ip), vehicle: carboxymethylcellulose (CMC) 95 % of control | dose: 120.0 mg/kg/injection, schedule: Q01DX Z (ip), vehicle: carboxymethylcellulose (CMC) 104 % of control | dose: 240.0 mg/kg/injection, schedule: Q01DX Z (ip), vehicle: carboxymethylcellulose (CMC) 101 % of control

C=C(COC(C)(C)C)CN(C)C
inactive: [3] 94 % of control | [4] 93 % of control

O=C(NCCCCc1ccccc1)c1ccccc1
inactive: [6] 102 % of control | [1] 95 % of control | dose: 200.0 mg/kg/injection, schedule: Q01DX009 (ip), vehicle: Klucel (hydroxypropylcellulose) (HPC) 109 % of control | [7] 105 % of control | dose: 400.0 mg/kg/injection, schedule: Q01DX009 (ip), vehicle: Klucel (hydroxypropylcellulose) (HPC) 106 % of control | [8] 95 % of control

COc1nncc(-c2cnnc(OC)n2)n1
inactive: dose: 12.5 mg/kg/injection, schedule: Q04DX002 (ip), vehicle: Klucel (hydroxypropylcellulose) (HPC) 112 % of control | dose: 25.0 mg/kg/injection, schedule: Q04DX002 (ip), vehicle: Klucel (hydroxypropylcellulose) (HPC) 105 % of control | dose: 50.0 mg/kg/injection, schedule: Q04DX002 (ip), vehicle: Klucel (hydroxypropylcellulose) (HPC) 109 % of control

CCCCCCCNC(C)(C)C(SSSC(c1ccc(Cl)cc1)C(C)(C)NCCCCCCC)c1ccc(Cl)cc1 (stereo not drawn)
inactive: [1] 101 % of control | [7] 101 % of control | [8] 98 % of control

BrC1CCC2C(CCC(Br)C23OCCO3)C12OCCO2 (stereo not drawn)
inactive: dose: 100.0 mg/kg/injection, schedule: Q01DX009 (ip), vehicle: saline 91 % of control | dose: 100.0 mg/kg/injection, schedule: Q04DX003 (ip), vehicle: saline 89 % of control | dose: 200.0 mg/kg/injection, schedule: Q01DX009 (ip), vehicle: saline 98 % of control | dose: 400.0 mg/kg/injection, schedule: Q01DX009 (ip), vehicle: saline 91 % of control | dose: 400.0 mg/kg/injection, schedule: Q04DX003 (ip), vehicle: saline 108 % of control

c1ccc2[nH]c(C(=C(c3nc4ccccc4[nH]3)c3nc4ccccc4[nH]3)c3nc4ccccc4[nH]3)nc2c1
inactive: dose: 100.0 mg/kg/injection, schedule: Q01DX001 (ip), vehicle: Klucel (hydroxypropylcellulose) (HPC) 87 % of control | [1] 97 % of control | dose: 200.0 mg/kg/injection, schedule: Q01DX001 (ip), vehicle: Klucel (hydroxypropylcellulose) (HPC) 87 % of control | [7] 112 % of control | [8] 90 % of control

CC(C)CCO[Si](C)(C)CCl
inactive: [9] 103 % of control | [10] 103 % of control | [11] 97 % of control | [12] 103 % of control

CC(C)CCCC(C)C1CCC2C3C(=O)C=C4CC(O)CCC4(C)C3CCC12C (stereo not drawn)
inactive: dose: 100.0 mg/kg/injection, schedule: Q01DX009 (sc), vehicle: steriod suspending solution 106 % of control | dose: 100.0 mg/kg/injection, schedule: Q04DX003 (sc), vehicle: steriod suspending solution 100 % of control | dose: 200.0 mg/kg/injection, schedule: Q01DX009 (sc), vehicle: steriod suspending solution 96 % of control | dose: 200.0 mg/kg/injection, schedule: Q04DX003 (sc), vehicle: steriod suspending solution 115 % of control | dose: 400.0 mg/kg/injection, schedule: Q01DX009 (sc), vehicle: steriod suspending solution 98 % of control | dose: 400.0 mg/kg/injection, schedule: Q04DX003 (sc), vehicle: steriod suspending solution 107 % of control

O=[N+]([O-])c1cccc(/C=C\C=C\c2ccccc2)c1
inactive: [2] 100 % of control | [3] 103 % of control | [4] 103 % of control | [5] 94 % of control

COCCN(N=O)C(=O)NC1CCCCC1
inactive: dose: 700.0 mg/kg/injection, schedule: Q01DX001 (ip), vehicle: carboxymethylcellulose (CMC) 124 % of control | dose: 800.0 mg/kg/injection, schedule: Q01DX001 (ip), vehicle: carboxymethylcellulose (CMC) 124 % of control | dose: 1000.0 mg/kg/injection, schedule: Q01DX001 (ip), vehicle: carboxymethylcellulose (CMC) 117 % of control

SC1c2cc(Cl)ccc2-c2c(Cl)cc(Cl)cc21 (stereo not drawn)
inactive: [10] 93 % of control | [11] 98 % of control | [12] 117 % of control

CCC[P+](c1ccccc1)(c1ccccc1)c1ccccc1
inactive: dose: 3.13 mg/kg/injection, schedule: Q01DX009 (ip), vehicle: saline with Tween-80 123 % of control | dose: 3.13 mg/kg/injection, schedule: Q04DX003 (ip), vehicle: saline with Tween-80 102 % of control | dose: 5.56 mg/kg/injection, schedule: Q01DX009 (ip), vehicle: saline with Tween-80 118 % of control | dose: 6.25 mg/kg/injection, schedule: Q01DX009 (ip), vehicle: saline with Tween-80 118 % of control | dose: 6.25 mg/kg/injection, schedule: Q04DX003 (ip), vehicle: saline with Tween-80 96 % of control | dose: 8.33 mg/kg/injection, schedule: Q01DX009 (ip), vehicle: saline with Tween-80 121 % of control | dose: 9.5 mg/kg/injection, schedule: Q01DX001 (ip), vehicle: other 111 % of control | dose: 12.5 mg/kg/injection, schedule: Q01DX001 (ip), vehicle: carboxymethylcellulose (CMC) 101 % of control | dose: 12.5 mg/kg/injection, schedule: Q04DX003 (ip), vehicle: saline with Tween-80 105 % of control | dose: 12.5 mg/kg/injection, schedule: Q04DX003 (ip), vehicle: saline 100 % of control | dose: 18.75 mg/kg/injection, schedule: Q01DX009 (ip), vehicle: saline with Tween-80 120 % of control | dose: 19.0 mg/kg/injection, schedule: Q01DX001 (ip), vehicle: other 102 % of control | dose: 25.0 mg/kg/injection, schedule: Q01DX001 (ip), vehicle: carboxymethylcellulose (CMC) 104 % of control | dose: 25.0 mg/kg/injection, schedule: Q04DX003 (ip), vehicle: saline with Tween-80 105 % of control | dose: 25.0 mg/kg/injection, schedule: Q04DX003 (ip), vehicle: saline 108 % of control | dose: 38.0 mg/kg/injection, schedule: Q01DX001 (ip), vehicle: other 107 % of control | [9] 99 % of control | dose: 50.0 mg/kg/injection, schedule: Q04DX003 (ip), vehicle: saline with Tween-80 105 % of control

Reference: PubChem BioAssay AID248 (DTP/NCI, 2004)
